These results are taken from US12685312B2, “Sulfonamide apyrase inhibitors” (Texas Crop Science, Inc., priority 2022, dated 2026).

For one experiment, the system named is apyrase. The experiment can be described thus: Screen for apyrase inhibitors (Method 1, in vitro phosphate-release absorbance assay). In kind it is biochemical. The conditions noted are these: inhibitor conc at 1 mM stock, 1 hr room temperature, absorbance 630 nm; rounded average of two assay results. In a few lines:
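Phosphate-release colorimetric assay (Windsor method) in 60 mM Hepes, 3 mM MgCl2, 3 mM CaCl2, 3 mM ATP, pH 6.5, with compound or DMSO control added. Released phosphate developed with ammonium molybdate and ascorbic acid/TCA, then stopped with citrate/acetic acid.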

For experiment [1], the system named is plant pathogenic fungi (Zymoseptoria tritici strains, Microdochium nivale). The experiment can be described thus: In vitro combination assay (Method 2), overall comparison with Roux Compound 13. Particulars: azoxystrobin, fluxapyroxad, desthio prothioconazole; three fungal strains. It counts as cell-based. How it is done:
(§1) Method 2: In Vitro Assessment of Combination Activity
(§2) Selected compounds were assessed in combination with fungicides against a range of commercially important plant pathogenic fungi.
(§3) The test was conducted as follows. A fungicide was applied to a fungal plant pathogen at a rate slightly below that at which it gave any control, in combination with a suitable dose of the test compound. The test compound was recorded as active if control of the pathogen was observed.
(§4) In more detail, the test was conducted as follows. For each combination of fungicide, pathogen and test compound, the following wells were used. Well 1 contained a fungal pathogen growing on agar, and a fungicide at a rate just below that at which it gave any control of the pathogen. Well 2 was the same as Well 1, except that the test compound was also added at Rate 1. Well 3 was the same as Well 2, except that the test compound was added at Rate 2, where Rate 2 was higher than Rate 1. Finally, as a benchmark, Well 4 was the same as Well 1, except that it contained the fungicide at a higher rate, at which it gave partial control of the pathogen. Each of the Wells 1 to 4 were run in duplicate, giving a total of 8 wells for each combination of fungicide, pathogen and test compound. For each well, after a suitable period of incubation, a visual assessment of the % control of the pathogen by the fungicide was made.
(§5) The following fungicides were used in this assay: azoxystrobin, fluxapyroxad, and desthio prothioconazole. The following fungal pathogens were used in this assay: First, a strain of Zymoseptoria tritici with a reduced susceptibility to strobilurin fungicides; second a strain of Zymoseptoria tritici with a reduced susceptibility to SDHI fungicides (i.e., those that inhibit succinate dehydrogenase); and third, Microdochium nivale.

The next experiment deals with Microdochium nivale. As to the kind of experiment: In vitro assessment of combination activity with fungicides (Method 2).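 Note: scored as inactive active or highly active.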 The conditions noted are these: fungicide at a rate just below that giving any control; visual % control. In kind it is cell-based. The method, then:
as §1, §2, §3, §4, §5

Experiment [2] deals with Zymoseptoria tritici with a reduced susceptibility to strobilurin fungicides. The experiment is described as above. In kind it is cell-based. Particulars: fungicide at a rate just below that giving any control; visual % control. How it is done:
as §1, §2, §3, §4, §5

For experiment [3], the system named is Zymoseptoria tritici with a reduced susceptibility to SDHI fungicides. The description is as above. The conditions noted are these: fungicide at a rate just below that giving any control; visual % control. It counts as cell-based. How it is done: as §1, §2, §3, §4, §5;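 note: scored as inactive active or highly active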
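Throughout, for enhancement of activity of azoxystrobin: scored as inactive active or highly active.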
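Throughout, for enhancement of activity of desthio prothioconazole: scored as inactive active or highly active.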
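Throughout, for enhancement of activity of fluxapyroxad: scored as inactive active or highly active.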

As for `O=C(Nc1cccc(NS(=O)(=O)c2ccc(Br)cc2Cl)c1)c1ccco1` [I-234, N-(3-((4-bromo-2-chlorophenyl)sulfonamido)phenyl)furan-2-carboxamide], the “% Inhibition of Apyrase” value in the experiment with apyrase turned out to be 66%. The “enhancer activity in the combination assay compared with Roux Compound 13” value in experiment [1] is reported as “superior enhancer activity than Roux Compound 13”. Further, the “enhancement of activity of desthio prothioconazole” value (in the experiment on Microdochium nivale; in experiment [2]; in experiment [3]) was “enhancing fungicidal activity” in each case. Also, the “enhancement of activity of fluxapyroxad” value (with Microdochium nivale; in experiment [3]) was “enhancing fungicidal activity” each time.
With `O=C(Nc1cccc(S(=O)(=O)Nc2ccc(Br)cc2)c1)C1CCCCC1` [I-219, N-(3-(N-(4-bromophenyl)sulfamoyl)phenyl) cyclohexanecarboxamide], in the experiment on apyrase, the “% Inhibition of Apyrase” value is 73%. Also, the “enhancer activity in the combination assay compared with Roux Compound 13” value in experiment [1] is “superior enhancer activity than Roux Compound 13”.
For the compound `COc1ccc(NC(=O)c2cccc(S(=O)(=O)Nc3ccc(Br)cc3)c2)cc1` [I-18, 3-(N-(4-bromophenyl)sulfamoyl)-N-(4-methoxyphenyl)benzamide], in the experiment with apyrase, the “% Inhibition of Apyrase” value is 51%. In addition, the “enhancer activity in the combination assay compared with Roux Compound 13” value in experiment [1] is “superior enhancer activity than Roux Compound 13”.
Take `Cc1ccccc1NS(=O)(=O)c1cc(C(=O)Nc2cccc([N+](=O)[O-])c2)ccc1Cl` [I-2, 4-chloro-N-(3-nitrophenyl)-3-(N-(o-tolyl)sulfamoyl)benzamide]: the “% Inhibition of Apyrase” value with apyrase is 77%. The “enhancer activity in the combination assay compared with Roux Compound 13” value in experiment [1] is on record as “superior enhancer activity than Roux Compound 13”.
The corresponding values for `N#Cc1ccccc1S(=O)(=O)Nc1cccc(C(=O)Nc2cccc(C(F)(F)F)c2)c1` [I-229, 3-((2-cyanophenyl)sulfonamido)-N-(3-(trifluoromethyl)phenyl)benzamide] are 66% and “superior enhancer activity than Roux Compound 13”.
The matching figures for `O=C(Nc1ccc(Br)cc1)c1cccc(S(=O)(=O)Nc2cc(C(F)(F)F)ccc2Cl)c1` [I-178, N-(4-bromophenyl)-3-(N-(2-chloro-5-(trifluoromethyl)phenyl)sulfamoyl)benzamide]: 76% and “superior enhancer activity than Roux Compound 13”.
The matching figures for `O=C(Nc1ccc(Br)cc1)c1cccc(S(=O)(=O)Nc2ccc3c(c2)OCO3)c1` [I-201, 3-(N-(benzo[d][1,3]dioxol-5-yl)sulfamoyl)-N-(4-bromophenyl)benzamide]: 77% and “superior enhancer activity than Roux Compound 13”.
Regarding `O=C(/C=C/c1ccco1)Nc1cccc(S(=O)(=O)Nc2ccc(Br)cc2)c1` [I-226, (E)-N-(3-(N-(4-bromophenyl)sulfamoyl)phenyl)-3-(furan-2-yl)acrylamide], the “% Inhibition of Apyrase” value with apyrase was found to be 73%. The “enhancer activity in the combination assay compared with Roux Compound 13” value in experiment [1] was “superior enhancer activity than Roux Compound 13”.
The corresponding values for `Cc1cc(NC(=O)c2cccc(NS(=O)(=O)c3ccc(F)c(F)c3)c2)ccc1Br` [I-191, N-(4-bromo-3-methylphenyl)-3-((3,4-difluorophenyl)sulfonamido)benzamide] are 76% and “superior enhancer activity than Roux Compound 13”.
The matching figures for `O=C(Nc1cccc(Br)c1)c1cccc(S(=O)(=O)Nc2ccc3c(c2)OCO3)c1` [I-186, 3-(N-(benzo[d][1,3]dioxol-5-yl)sulfamoyl)-N-(3-bromophenyl)benzamide]: 72% and “superior enhancer activity than Roux Compound 13”.
For `O=C(Nc1ccccc1)c1ccc(S(=O)(=O)Nc2ccccc2)cc1` [I-392, N-phenyl-4-(N-phenylsulfamoyl)benzamide], the “% Inhibition of Apyrase” value with apyrase was found to be 59%. Besides, the “enhancement of activity of desthio prothioconazole” value (in the experiment with Microdochium nivale; in experiment [2]; in experiment [3]) was “highly active” each time. Further, the “enhancement of activity of azoxystrobin” value in experiment [2] and in experiment [3] was “enhanced the activity” in each case.
Turning to `O=C(Nc1cccc([N+](=O)[O-])c1)c1cccc(S(=O)(=O)Nc2ccc(Br)cc2)c1` [Roux compound 13, reference compound], the “enhancer activity in the combination assay compared with Roux Compound 13” value in experiment [1] is recorded as “little or no activity”. In the experiment with Microdochium nivale, the “enhancement of activity of azoxystrobin” value is listed as “enhancing the activity”. For the same compound, in experiment [2], the “enhancement of activity of azoxystrobin” value is “failing to enhance activity”, the “enhancement of activity of desthio prothioconazole” value was “failing to enhance activity” and the “enhancement of activity of fluxapyroxad” value was “failing to enhance activity”. In addition, in experiment [3], the “enhancement of activity of azoxystrobin” value is on record as “failing to enhance activity”, the “enhancement of activity of desthio prothioconazole” value was “failing to enhance activity” and the “enhancement of activity of fluxapyroxad” value is listed as “failing to enhance activity”.
Regarding `COc1cc(Cl)c(C)cc1NC(=O)c1ccccc1S(=O)(=O)N(C)c1ccccc1` [I-807, N-(4-chloro-2-methoxy-5-methylphenyl)-2-(N-methyl-N-phenylsulfamoyl)benzamide], the “% Inhibition of Apyrase” value in the experiment with apyrase was 82%. In addition, the “enhancer activity in the combination assay compared with Roux Compound 13” value in experiment [1] was “superior enhancer activity than Roux Compound 13”.
The corresponding values for `COC(=O)c1ccc(NC(=O)c2ccccc2S(=O)(=O)N(C)c2ccccc2)cc1` [I-233, methyl 4-(2-(N-methyl-N-phenylsulfamoyl)benzamido)benzoate] are 61% and “superior enhancer activity than Roux Compound 13”.
The matching figures for `O=C(Nc1cccc(S(=O)(=O)Nc2ccc(Br)cc2)c1)c1ccc(Cl)nc1` [I-221, N-(3-(N-(4-bromophenyl)sulfamoyl)phenyl)-6-chloronicotinamide]: 67% and “superior enhancer activity than Roux Compound 13”.
Consider `O=C(Nc1cccc(C(F)(F)F)c1)c1cccc(NS(=O)(=O)c2cccc(C(F)(F)F)c2)c1` [I-217, N-(3-(trifluoromethyl)phenyl)-3-((3-(trifluoromethyl)phenyl)sulfonamido) benzamide], for which the “% Inhibition of Apyrase” value with apyrase came to 70%. For the same compound, the “enhancer activity in the combination assay compared with Roux Compound 13” value in experiment [1] is on record as “superior enhancer activity than Roux Compound 13”.
Regarding `O=C(Nc1cccc(C(F)(F)F)c1)c1cccc(NS(=O)(=O)c2cccc(Cl)c2)c1` [I-317, 3-((3-chlorophenyl)sulfonamido)-N-(3-(trifluoromethyl)phenyl)benzamide], the “% Inhibition of Apyrase” value with apyrase is listed as 69%. In experiment [1], the “enhancer activity in the combination assay compared with Roux Compound 13” value was “superior enhancer activity than Roux Compound 13”.
Take `Cc1ccc(C(=O)Nc2cccc(NS(=O)(=O)c3ccccc3)c2)cc1F` [I-209, 3-fluoro-4-methyl-N-(3-(phenylsulfonamido)phenyl)benzamide]: the “% Inhibition of Apyrase” value with apyrase worked out at 75%. Besides, the “enhancer activity in the combination assay compared with Roux Compound 13” value in experiment [1] is reported as “superior enhancer activity than Roux Compound 13”.
In the case of `N#Cc1cccc(NC(=O)c2cccc(S(=O)(=O)Nc3ccc(Br)cc3)c2)c1` [I-16, 3-(N-(4-bromophenyl)sulfamoyl)-N-(3-cyanophenyl)benzamide], in the experiment with apyrase, the “% Inhibition of Apyrase” value is on record as 54%. The “enhancer activity in the combination assay compared with Roux Compound 13” value in experiment [1] was “superior enhancer activity than Roux Compound 13”.
Turning to `Cn1cc(O)nc1NC(=O)c1cccc(S(=O)(=O)Nc2ccc(Br)cc2)c1` [I-12, 3-(N-(4-bromophenyl)sulfamoyl)-N-(4-hydroxy-1-methyl-1H-imidazol-2-yl)benzamide], the “% Inhibition of Apyrase” value with apyrase stood at 59%.
Still for that read-out and setting: in the case of `CCOc1ccc(NS(=O)(=O)c2cccc(NC(=O)c3ccncc3)c2)cc1Br` [I-765, N-(3-(N-(3-bromo-4-ethoxyphenyl)sulfamoyl)phenyl) isonicotinamide] it was 15%; in that of `O=C(Nc1ccc(OCC(F)(F)F)cc1)c1cccc(S(=O)(=O)Nc2ccc3c(c2)OCO3)c1` [I-259, 3-(N-(benzo[d][1,3]dioxol-5-yl)sulfamoyl)-N-(4-(2,2,2-trifluoroethoxy)phenyl)benzamide], 60%.
